The IC50 is the midpoint of a concentration-inhibition curve.

Drawing on patent US8022206B2 (OSI Pharmaceuticals, LLC, priority 2008, dated 2011), this text covers IC50 for 22 molecules.

In one test the target is RON (human) (Homo sapiens, UniProt Q04912). The experiment in a line: RON (human) AlphaScreen kinase assay, Km of ATP. As to conditions: AlphaScreen, Km of ATP; read-out: RON biochemical IC50. The test is classed as biochemical. On the procedure: (§1) Someone skilled in the art will appreciate that a variety of assay formats may be used to determine the activity of the compounds of this invention. For example, AlphaScreen (Amplified Luminescent Proximity Homogeneous Assay) technology was used with the kinases described below. Assay ATP concentrations for individual kinases are included in the text.
Chain of RON (human) (Q04912 25-1400): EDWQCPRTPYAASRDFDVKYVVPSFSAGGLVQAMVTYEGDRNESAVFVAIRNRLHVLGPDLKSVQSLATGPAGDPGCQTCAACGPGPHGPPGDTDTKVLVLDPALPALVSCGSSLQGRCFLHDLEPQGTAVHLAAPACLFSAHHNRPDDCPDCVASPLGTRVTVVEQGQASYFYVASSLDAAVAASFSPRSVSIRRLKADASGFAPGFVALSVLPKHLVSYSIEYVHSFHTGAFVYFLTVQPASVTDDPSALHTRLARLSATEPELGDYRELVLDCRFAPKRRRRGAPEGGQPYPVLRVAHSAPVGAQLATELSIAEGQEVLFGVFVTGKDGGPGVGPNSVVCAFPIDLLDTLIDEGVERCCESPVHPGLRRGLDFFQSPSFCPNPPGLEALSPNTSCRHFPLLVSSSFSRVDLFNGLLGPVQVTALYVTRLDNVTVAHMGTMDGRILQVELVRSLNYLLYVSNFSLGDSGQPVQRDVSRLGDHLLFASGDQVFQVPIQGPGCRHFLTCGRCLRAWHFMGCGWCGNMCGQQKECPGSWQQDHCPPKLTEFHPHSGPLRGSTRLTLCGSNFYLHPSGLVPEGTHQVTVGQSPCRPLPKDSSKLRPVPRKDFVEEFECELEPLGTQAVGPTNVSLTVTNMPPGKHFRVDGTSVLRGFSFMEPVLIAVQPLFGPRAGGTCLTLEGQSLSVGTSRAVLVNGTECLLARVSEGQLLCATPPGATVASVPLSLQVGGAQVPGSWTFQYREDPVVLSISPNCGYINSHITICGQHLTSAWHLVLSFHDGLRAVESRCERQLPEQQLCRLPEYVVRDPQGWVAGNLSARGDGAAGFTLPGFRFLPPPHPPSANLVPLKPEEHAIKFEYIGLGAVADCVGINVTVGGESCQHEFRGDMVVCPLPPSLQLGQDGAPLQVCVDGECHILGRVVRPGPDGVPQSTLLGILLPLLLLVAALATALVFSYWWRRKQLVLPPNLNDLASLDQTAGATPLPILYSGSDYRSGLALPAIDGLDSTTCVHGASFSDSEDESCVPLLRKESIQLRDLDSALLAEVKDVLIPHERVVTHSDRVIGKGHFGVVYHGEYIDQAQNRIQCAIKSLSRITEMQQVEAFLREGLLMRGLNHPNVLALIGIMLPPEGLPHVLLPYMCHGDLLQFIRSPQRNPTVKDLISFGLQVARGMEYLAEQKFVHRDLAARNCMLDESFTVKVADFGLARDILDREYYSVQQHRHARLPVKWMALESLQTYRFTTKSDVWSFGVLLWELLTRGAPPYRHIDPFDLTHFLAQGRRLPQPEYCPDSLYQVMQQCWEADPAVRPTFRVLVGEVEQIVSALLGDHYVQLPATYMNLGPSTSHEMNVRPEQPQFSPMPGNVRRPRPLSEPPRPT
Desired compound is added in a final concentration of 1% DMSO with control being vehicle of DMSO alone. […] Enzyme is added to initiate the reaction and incubated for 30 min at RT. In subdued light, appropriate amount of PT66 donor and acceptor beads (diluted 1:260 from manufacturer's provision in a 25 mM Tris HCl (pH=7.5), 200 mM NaCl, 100 mM EDTA, 0.3% BSA buffer) are added to the wells. The plates, incubated for 1 h, are read on an AlphaQuest plate reader.
For orientation: Bead proximity is the source of the signal in Alpha formats.

The next test deals with MET (human) (Homo sapiens, UniProt P08581). The experiment in a line: MET (human) AlphaScreen kinase assay, Km of ATP. In kind it is biochemical. To be noted: AlphaScreen, Km of ATP; read-out: Met biochemical IC50. On the procedure:
as §1
Desired compound is added in a final concentration of 1% DMSO with control being vehicle of DMSO alone. MET is diluted to the optimized concentration (optimized on a lot-by-lot basis) in an enzyme diluent buffer (50 mM Tris pH=7.4, 1% glycerol, 0.03% Brij35, 0.24 mM EGTA, 1 mM DTT, and 0.003% BSA). Enzyme is added to initiate the reaction and incubated for 60 min at RT. In subdued light, appropriate amount of PT66 donor and acceptor beads (diluted 1:260 from manufacturer's provision in a 25 mM Tris HCl (pH=7.5), 400 mM NaCl, 100 mM EDTA, 0.3% BSA buffer) are added to the wells. The plates, incubated for 1 h, are read on an AlphaQuest plate reader

Chain of MET (human) (P08581 25-1390): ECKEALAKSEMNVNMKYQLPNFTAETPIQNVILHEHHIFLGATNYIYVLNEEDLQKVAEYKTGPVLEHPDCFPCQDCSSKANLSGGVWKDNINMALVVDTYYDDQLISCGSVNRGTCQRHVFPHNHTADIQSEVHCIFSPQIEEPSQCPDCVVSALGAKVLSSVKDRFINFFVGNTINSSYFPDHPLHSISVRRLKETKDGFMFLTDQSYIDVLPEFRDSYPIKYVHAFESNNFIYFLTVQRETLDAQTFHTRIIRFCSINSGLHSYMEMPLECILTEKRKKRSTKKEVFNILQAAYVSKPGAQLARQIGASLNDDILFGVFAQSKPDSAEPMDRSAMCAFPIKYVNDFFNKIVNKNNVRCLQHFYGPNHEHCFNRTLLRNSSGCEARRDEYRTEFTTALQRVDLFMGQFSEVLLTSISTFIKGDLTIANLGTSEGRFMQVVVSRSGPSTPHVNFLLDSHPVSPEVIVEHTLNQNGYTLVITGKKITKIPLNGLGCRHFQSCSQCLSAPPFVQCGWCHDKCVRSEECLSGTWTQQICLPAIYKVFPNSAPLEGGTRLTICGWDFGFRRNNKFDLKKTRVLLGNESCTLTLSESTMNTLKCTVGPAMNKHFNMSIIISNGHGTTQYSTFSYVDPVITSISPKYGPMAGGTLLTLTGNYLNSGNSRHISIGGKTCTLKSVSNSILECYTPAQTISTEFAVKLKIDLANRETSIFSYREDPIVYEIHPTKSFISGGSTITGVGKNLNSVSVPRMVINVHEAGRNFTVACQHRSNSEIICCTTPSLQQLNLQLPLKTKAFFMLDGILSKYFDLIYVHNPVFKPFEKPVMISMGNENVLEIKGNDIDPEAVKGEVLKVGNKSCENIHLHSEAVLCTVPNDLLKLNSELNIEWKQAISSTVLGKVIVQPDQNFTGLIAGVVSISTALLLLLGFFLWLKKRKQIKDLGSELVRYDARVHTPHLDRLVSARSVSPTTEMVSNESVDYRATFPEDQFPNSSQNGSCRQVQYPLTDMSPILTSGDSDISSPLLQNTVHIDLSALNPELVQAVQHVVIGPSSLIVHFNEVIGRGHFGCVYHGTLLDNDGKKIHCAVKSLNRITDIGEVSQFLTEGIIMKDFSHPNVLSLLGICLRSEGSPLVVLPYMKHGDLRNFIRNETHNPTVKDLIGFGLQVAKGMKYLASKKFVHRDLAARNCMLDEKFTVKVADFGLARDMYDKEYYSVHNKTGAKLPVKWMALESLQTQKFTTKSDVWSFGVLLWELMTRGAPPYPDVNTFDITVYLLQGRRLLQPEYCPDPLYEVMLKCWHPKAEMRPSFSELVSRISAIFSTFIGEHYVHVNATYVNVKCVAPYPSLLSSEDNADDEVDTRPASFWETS

As to `CCN1CCN(C(=O)N2CC=C(c3coc4c(O[C@H](C)c5c(Cl)ccc(F)c5Cl)c(N)ncc34)CC2)CC1` [Example 27, (4-{6-Amino-7-[(R)-1-(2,6-dichloro-3-fluorophenyl)-ethoxy]-furo[3,2-c]pyridin-3-yl}-3,6-dihydro-2H-pyridin-1-yl)-(4-ethylpiperazin-1-yl)-methanone], the IC50 on RON (human) and on MET (human) was below 500 nM throughout.
Take `C[C@@H](Oc1c(N)ncc2c(C3=CCN(C(=O)N4CCN(CC(F)(F)F)CC4)CC3)coc12)c1c(Cl)ccc(F)c1Cl` [Example 28, (4-{6-Amino-7-[(R)-1-(2,6-dichloro-3-fluorophenyl)-ethoxy]-furo[3,2-c]pyridin-3-yl}-3,6-dihydro-2H-pyridin-1-yl)-[4-(2,2,2-trifluoroethyl)-piperazin-1-yl]-methanone]: the half-inhibitory concentration (IC50) at RON (human) and on MET (human) was 500 to 5000 nM in each case.
As to `C[C@@H](Oc1c(N)ncc2c(C3=CCN(C(=O)N4CCN(C(C)(C)C)CC4)CC3)coc12)c1c(Cl)ccc(F)c1Cl` [Example 29, (4-{6-Amino-7-[(R)-1-(2,6-dichloro-3-fluorophenyl)-ethoxy]-furo[3,2-c]pyridin-3-yl}-3,6-dihydro-2H-pyridin-1-yl)-(4-tert-butylpiperazin-1-yl)-methanone], the IC50 on RON (human) and at MET (human) was below 500 nM throughout.
`C[C@@H]1CN(C(=O)N2CC=C(c3coc4c(O[C@H](C)c5c(Cl)ccc(F)c5Cl)c(N)ncc34)CC2)C[C@H](C)O1` [Example 30, (4-{6-Amino-7-[(R)-1-(2,6-dichloro-3-fluorophenyl)-ethoxy]-furo[3,2-c]pyridin-3-yl}-3,6-dihydro-2H-pyridin-1-yl)-((2R,6S)-2,6-dimethylmorpholin-4-yl)-methanone]: the IC50 at RON (human) and on MET (human) was 500 to 5000 nM throughout.
Consider `C[C@@H](Oc1c(N)ncc2c(C3=CCN(C(=O)N4CCOCC4)CC3)coc12)c1c(Cl)ccc(F)c1Cl` [Example 31, (4-{6-Amino-7-[(R)-1-(2,6-dichloro-3-fluorophenyl)-ethoxy]-furo[3,2-c]pyridin-3-yl}-3,6-dihydro-2H-pyridin-1-yl)-morpholin-4-ylmethanone], for which the 50% inhibitory concentration (IC50) on RON (human) and at MET (human) was 500 to 5000 nM throughout.
On to `C[C@@H](Oc1c(N)ncc2c(C3=CCN(C(=O)N4CCCCC4)CC3)coc12)c1c(Cl)ccc(F)c1Cl` [Example 32, (4-{6-Amino-7-[(R)-1-(2,6-dichloro-3-fluorophenyl)-ethoxy]-furo[3,2-c]pyridin-3-yl}-3,6-dihydro-2H-pyridin-1-yl)-piperidin-1-ylmethanone], for which the IC50 at RON (human) and at MET (human) was 500 to 5000 nM throughout.
Take `C[C@@H](Oc1c(N)ncc2c(C3=CCN(C(=O)N4CCNCC4)CC3)coc12)c1c(Cl)ccc(F)c1Cl` [Example 33, (4-{6-Amino-7-[(R)-1-(2,6-dichloro-3-fluorophenyl)-ethoxy]-furo[3,2-c]pyridin-3-yl}-3,6-dihydro-2H-pyridin-1-yl)-piperazin-1-ylmethanone]: the IC50 at RON (human) and at MET (human) was below 500 nM throughout.
In the case of `C[C@@H](Oc1c(N)ncc2c(C3=CCN(C(N)=O)CC3)coc12)c1c(Cl)ccc(F)c1Cl` [Example 34, 4-{6-Amino-7-[(R)-1-(2,6-dichloro-3-fluorophenyl)ethoxy]-furo[3,2-c]pyridin-3-yl}-3,6-dihydro-2H-pyridine-1-carboxamide], the IC50 on RON (human) and at MET (human) was below 500 nM throughout.
For the molecule `CNc1ncc2c(C3=CCN(C)CC3)coc2c1O[C@H](C)c1c(Cl)ccc(F)c1Cl` [Example 36, [7-[(R)-1-(2,6-Dichloro-3-fluorophenyl)-ethoxy]-3-(1-methyl-1,2,3,6-tetrahydropyridin-4-yl)-furo[3,2-c]pyridin-6-yl]-methylamine], the IC50 at RON (human) and at MET (human) was below 500 nM each time.
In the case of `C[C@@H](Oc1c(N)ncc2c(C3=CCN(C)CC3)coc12)c1c(Cl)ccc(F)c1Cl` [Example 37, 7-[(R)-1-(2,6-Dichloro-3-fluorophenyl)-ethoxy]-3-(1-methyl-1,2,3,6-tetrahydropyridin-4-yl)-furo[3,2-c]pyridin-6-ylamine], the IC50 on RON (human) and at MET (human) was below 500 nM in each case.
Consider `C[C@@H](Oc1c(N)ncc2c(C3=CCN(CC4CCCCC4)CC3)coc12)c1c(Cl)ccc(F)c1Cl` [Example 38, 3-(1-Cyclohexylmethyl-1,2,3,6-tetrahydropyridin-4-yl)-7-[(R)-1-(2,6-dichloro-3-fluorophenyl)-ethoxy]-furo[3,2-c]pyridin-6-ylamine], for which the IC50 at RON (human) and on MET (human) was below 500 nM in each case.
With `C[C@@H](Oc1c(N)ncc2c(C3=CCN(Cc4ccccc4)CC3)coc12)c1c(Cl)ccc(F)c1Cl` [Example 39, 3-(1-Benzyl-1,2,3,6-tetrahydropyridin-4-yl)-7-[(R)-1-(2,6-dichloro-3-fluorophenyl)-ethoxy]-furo[3,2-c]pyridin-6-ylamine], the half-maximal inhibitory concentration (IC50) was 500 to 5000 nM at RON (human) and below 500 nM at MET (human).
For the molecule `CCN1CC=C(c2coc3c(O[C@H](C)c4c(Cl)ccc(F)c4Cl)c(N)ncc23)CC1` [Example 40, 7-[(R)-1-(2,6-Dichloro-3-fluorophenyl)-ethoxy]-3-(1-ethyl-1,2,3,6-tetrahydropyridin-4-yl)-furo[3,2-c]pyridin-6-ylamine], the IC50 at RON (human) and on MET (human) was below 500 nM in each case.
Regarding `CC(C)CN1CC=C(c2coc3c(O[C@H](C)c4c(Cl)ccc(F)c4Cl)c(N)ncc23)CC1` [Example 41, 7-[(R)-1-(2,6-Dichloro-3-fluorophenyl)-ethoxy]-3-(1-isobutyl-1,2,3,6-tetrahydropyridin-4-yl)-furo[3,2-c]pyridin-6-ylamine], the IC50 at RON (human) and on MET (human) was below 500 nM each time.
`CCCN1CC=C(c2coc3c(O[C@H](C)c4c(Cl)ccc(F)c4Cl)c(N)ncc23)CC1` [Example 42, 7-[(R)-1-(2,6-Dichloro-3-fluorophenyl)-ethoxy]-3-(1-propyl-1,2,3,6-tetrahydropyridin-4-yl)-furo[3,2-c]pyridin-6-ylamine]: the half-maximal inhibitory concentration (IC50) at RON (human) and at MET (human) was below 500 nM in each case.
As to `C[C@@H](Oc1c(N)ncc2c(C3=CCN(CCN)CC3)coc12)c1c(Cl)ccc(F)c1Cl` [Example 43, 3-[1-(2-Aminoethyl)-1,2,3,6-tetrahydropyridin-4-yl]-7-[(R)-1-(2,6-dichloro-3-fluorophenyl)ethoxy]-furo[3,2-c]pyridin-6-ylamine], the IC50 at RON (human) and at MET (human) was below 500 nM each time.
As to `C[C@@H](Oc1c(N)ncc2c(C3=CCN(C4CCC4)CC3)coc12)c1c(Cl)ccc(F)c1Cl` [Example 44, 3-(1-Cyclobutyl-1,2,3,6-tetrahydropyridin-4-yl)-7-[(R)-1-(2,6-dichloro-3-fluorophenyl)-ethoxy]-furo[3,2-c]pyridin-6-ylamine], the half-maximal inhibitory concentration (IC50) on RON (human) and on MET (human) was below 500 nM each time.
For the molecule `CC(C)N1CC=C(c2coc3c(O[C@H](C)c4c(Cl)ccc(F)c4Cl)c(N)ncc23)CC1` [Example 45, 7-[(R)-1-(2,6-Dichloro-3-fluorophenyl)-ethoxy]-3-(1-isopropyl-1,2,3,6-tetrahydropyridin-4-yl)-furo[3,2-c]pyridin-6-ylamine], the half-inhibitory concentration (IC50) on RON (human) and on MET (human) was below 500 nM each time.
As to `C[C@@H](Oc1c(N)ncc2c(C3=CCN(S(C)(=O)=O)CC3)coc12)c1c(Cl)ccc(F)c1Cl` [Example 46, 7-[(R)-1-(2,6-Dichloro-3-fluorophenyl)-ethoxy]-3-(1-methanesulfonyl-1,2,3,6-tetrahydropyridin-4-yl)-furo[3,2-c]pyridin-6-ylamine], the IC50 on RON (human) is 500 to 5000 nM; on MET (human), below 500 nM.
With `CCS(=O)(=O)N1CC=C(c2coc3c(O[C@H](C)c4c(Cl)ccc(F)c4Cl)c(N)ncc23)CC1` [Example 47, 7-[(R)-1-(2,6-Dichloro-3-fluorophenyl)-ethoxy]-3-(1-ethanesulfonyl-1,2,3,6-tetrahydropyridin-4-yl)-furo[3,2-c]pyridin-6-ylamine], the IC50 at RON (human) and on MET (human) was 500 to 5000 nM each time.
Take `C[C@@H](Oc1c(N)ncc2c(C3=CCN(S(=O)(=O)C4CC4)CC3)coc12)c1c(Cl)ccc(F)c1Cl` [Example 48, 3-(1-Cyclopropanesulfonyl-1,2,3,6-tetrahydropyridin-4-yl)-7-[(R)-1-(2,6-dichloro-3-fluorophenyl)-ethoxy]-furo[3,2-c]pyridin-6-ylamine]: the figures for the IC50 at RON (human) and on MET (human) were 500 to 5000 nM and below 500 nM, respectively.
As to `C[C@@H](Oc1c(N)ncc2c(C3=CCN(S(=O)(=O)c4ccccc4)CC3)coc12)c1c(Cl)ccc(F)c1Cl` [Example 49, 3-(1-Benzenesulfonyl-1,2,3,6-tetrahydropyridin-4-yl)-7-[(R)-1-(2,6-dichloro-3-fluorophenyl)-ethoxy]-furo[3,2-c]pyridin-6-ylamine], the IC50 at RON (human) and on MET (human) was 500 to 5000 nM in each case.
